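GI50 = concentration required for 50% inhibition of growth. TGI marks complete inhibition of growth.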
How the values were obtained:
Experiment in all cases: NCI anticancer screen, dose series, 384-well format
SNB-75 CNS = tested on: SNB-75 CNS
MDA-MB-231 breast = tested on: MDA-MB-231 breast
DU-145 prostate = tested on: DU-145 prostate
SR leukemia = tested on: SR leukemia
OVCAR-3 ovarian = tested on: OVCAR-3 ovarian
HL-60(TB) leukemia = tested on: HL-60(TB) leukemia
HOP-62 NSCLC = tested on: HOP-62 NSCLC
NCI-H23 lung = tested on: NCI-H23 lung
HCT-116 colon = tested on: HCT-116 colon
CCRF-CEM leukemia = tested on: CCRF-CEM leukemia
M14 melanoma = tested on: M14 melanoma
MDA-MB-468 breast = tested on: MDA-MB-468 breast
RXF 393 renal = tested on: RXF 393 renal
NCI-H226 lung = tested on: NCI-H226 lung
SW-620 colon = tested on: SW-620 colon
UACC-257 melanoma = tested on: UACC-257 melanoma
UO-31 renal = tested on: UO-31 renal
HCT-15 colon = tested on: HCT-15 colon
T-47D breast = tested on: T-47D breast
UACC-62 melanoma = tested on: UACC-62 melanoma
NCI-H460 NSCLC = tested on: NCI-H460 NSCLC
NCI/ADR-RES ovarian = tested on: NCI/ADR-RES ovarian
HS 578T breast = tested on: HS 578T breast
COLO 205 colon = tested on: COLO 205 colon
TK-10 renal = tested on: TK-10 renal
SN12C renal = tested on: SN12C renal
CAKI-1 renal = tested on: CAKI-1 renal
KM12 colon = tested on: KM12 colon
SK-MEL-5 melanoma = tested on: SK-MEL-5 melanoma
SF-539 CNS = tested on: SF-539 CNS
K-562 leukemia = tested on: K-562 leukemia
SNB-19 CNS = tested on: SNB-19 CNS
SK-MEL-28 melanoma = tested on: SK-MEL-28 melanoma
IGROV1 ovarian = tested on: IGROV1 ovarian
MCF7 breast = tested on: MCF7 breast
OVCAR-8 ovarian = tested on: OVCAR-8 ovarian
HCC-2998 colon = tested on: HCC-2998 colon
SF-268 CNS = tested on: SF-268 CNS
MDA-MB-435 melanoma = tested on: MDA-MB-435 melanoma
EKVX NSCLC = tested on: EKVX NSCLC
A498 renal = tested on: A498 renal
SK-OV-3 ovarian = tested on: SK-OV-3 ovarian
HOP-92 NSCLC = tested on: HOP-92 NSCLC
MALME-3M melanoma = tested on: MALME-3M melanoma
NCI-H322M lung = tested on: NCI-H322M lung
OVCAR-4 ovarian = tested on: OVCAR-4 ovarian
BT-549 breast = tested on: BT-549 breast
ACHN renal = tested on: ACHN renal
786-0 renal = tested on: 786-0 renal
RPMI-8226 leukemia = tested on: RPMI-8226 leukemia
NCI-H522 lung = tested on: NCI-H522 lung
PC-3 prostate = tested on: PC-3 prostate
U251 glioblastoma = tested on: U251 glioblastoma
HT29 colon = tested on: HT29 colon
MOLT-4 leukemia = tested on: MOLT-4 leukemia
SF-295 CNS = tested on: SF-295 CNS
LOX IMVI melanoma = tested on: LOX IMVI melanoma
A549 NSCLC = tested on: A549 NSCLC

Compound: Cc1ccccc1C(C(=O)NC1CCCCC1)N(C(=O)CNc1ccc(C#N)cc1)c1cccc(F)c1 (stereo unspecified)
- GI50 (SNB-75 CNS): 2.61 µM
- TGI (SNB-75 CNS): 16.2 µM
- GI50 (MDA-MB-231 breast): 5.23 µM
- TGI (MDA-MB-231 breast): 29.4 µM
- GI50 (DU-145 prostate): 12.6 µM
- TGI (DU-145 prostate): > 100 µM
- GI50 (SR leukemia): 1.77 µM
- TGI (SR leukemia): 4.61 µM
- GI50 (OVCAR-3 ovarian): 3.58 µM
- TGI (OVCAR-3 ovarian): 35.3 µM
- GI50 (HL-60(TB) leukemia): 1.15 µM
- TGI (HL-60(TB) leukemia): 3.91 µM
- GI50 (HOP-62 NSCLC): 6.88 µM
- TGI (HOP-62 NSCLC): 45.3 µM
- GI50 (NCI-H23 lung): 4.65 µM
- TGI (NCI-H23 lung): 24.4 µM
- GI50 (HCT-116 colon): 4.46 µM
- TGI (HCT-116 colon): 33.9 µM
- GI50 (CCRF-CEM leukemia): 98.4 µM
- TGI (CCRF-CEM leukemia): > 100 µM
- GI50 (M14 melanoma): 2.56 µM
- TGI (M14 melanoma): 13.1 µM
- GI50 (MDA-MB-468 breast): 51.7 µM
- TGI (MDA-MB-468 breast): > 100 µM
- GI50 (RXF 393 renal): 4.41 µM
- TGI (RXF 393 renal): 24.7 µM
- GI50 (NCI-H226 lung): 4.84 µM
- TGI (NCI-H226 lung): 27.2 µM
- GI50 (SW-620 colon): 3.4 µM
- TGI (SW-620 colon): > 100 µM
- GI50 (UACC-257 melanoma): 3.77 µM
- TGI (UACC-257 melanoma): 18.5 µM
- GI50 (UO-31 renal): 57.3 µM
- TGI (UO-31 renal): > 100 µM
- GI50 (HCT-15 colon): 65.1 µM
- TGI (HCT-15 colon): > 100 µM
- GI50 (T-47D breast): 7.89 µM
- TGI (T-47D breast): > 100 µM
- GI50 (UACC-62 melanoma): 1.58 µM
- TGI (UACC-62 melanoma): 4.91 µM
- GI50 (NCI-H460 NSCLC): 3.86 µM
- TGI (NCI-H460 NSCLC): > 100 µM
- GI50 (NCI/ADR-RES ovarian): 46.9 µM
- TGI (NCI/ADR-RES ovarian): > 100 µM
- GI50 (HS 578T breast): 3.36 µM
- TGI (HS 578T breast): 20.1 µM
- GI50 (COLO 205 colon): 3.04 µM
- TGI (COLO 205 colon): 20.7 µM
- GI50 (TK-10 renal): 19 µM
- TGI (TK-10 renal): > 100 µM
- GI50 (SN12C renal): 4.43 µM
- TGI (SN12C renal): 66.8 µM
- GI50 (CAKI-1 renal): 4.93 µM
- TGI (CAKI-1 renal): 22.7 µM
- GI50 (KM12 colon): 7.76 µM
- TGI (KM12 colon): 89.6 µM
- GI50 (SK-MEL-5 melanoma): 3.12 µM
- TGI (SK-MEL-5 melanoma): 17.8 µM
- GI50 (SF-539 CNS): 5.6 µM
- TGI (SF-539 CNS): 21.4 µM
- GI50 (K-562 leukemia): 3.25 µM
- TGI (K-562 leukemia): > 100 µM
- GI50 (SNB-19 CNS): 3.16 µM
- TGI (SNB-19 CNS): 16.6 µM
- GI50 (SK-MEL-28 melanoma): 2.49 µM
- TGI (SK-MEL-28 melanoma): 11.6 µM
- GI50 (IGROV1 ovarian): 8.13 µM
- TGI (IGROV1 ovarian): 88.7 µM
- GI50 (MCF7 breast): 14.6 µM
- TGI (MCF7 breast): > 100 µM
- GI50 (OVCAR-8 ovarian): 4.15 µM
- TGI (OVCAR-8 ovarian): 58.3 µM
- GI50 (HCC-2998 colon): 1.48 µM
- TGI (HCC-2998 colon): 11.2 µM
- GI50 (SF-268 CNS): 7.32 µM
- TGI (SF-268 CNS): 55.9 µM
- GI50 (MDA-MB-435 melanoma): 8.14 µM
- TGI (MDA-MB-435 melanoma): > 100 µM
- GI50 (EKVX NSCLC): 11.6 µM
- TGI (EKVX NSCLC): > 100 µM
- GI50 (A498 renal): 6.17 µM
- TGI (A498 renal): 27.2 µM
- GI50 (SK-OV-3 ovarian): 8.22 µM
- TGI (SK-OV-3 ovarian): 40.4 µM
- GI50 (HOP-92 NSCLC): 3.45 µM
- TGI (HOP-92 NSCLC): 17 µM
- GI50 (MALME-3M melanoma): 0.713 µM
- TGI (MALME-3M melanoma): 2.59 µM
- GI50 (NCI-H322M lung): 13.4 µM
- TGI (NCI-H322M lung): > 100 µM
- GI50 (OVCAR-4 ovarian): 5.82 µM
- TGI (OVCAR-4 ovarian): 31.5 µM
- GI50 (BT-549 breast): 7.62 µM
- TGI (BT-549 breast): 52.7 µM
- GI50 (ACHN renal): 11.6 µM
- TGI (ACHN renal): > 100 µM
- GI50 ([…]-0 renal): 3.83 µM
- TGI (786-0 renal): 20.7 µM
- GI50 (RPMI-8226 leukemia): 8.12 µM
- TGI (RPMI-8226 leukemia): > 100 µM
- GI50 (NCI-H522 lung): 7.86 µM
- TGI (NCI-H522 lung): 67.7 µM
- GI50 (PC-3 prostate): 7.84 µM
- TGI (PC-3 prostate): 56.1 µM
- GI50 (U251 glioblastoma): 15.7 µM
- TGI (U251 glioblastoma): > 100 µM
- GI50 (HT29 colon): 5.56 µM
- TGI (HT29 colon): > 100 µM
- GI50 (MOLT-4 leukemia): > 100 µM
- TGI (MOLT-4 leukemia): > 100 µM
- GI50 (SF-295 CNS): 15 µM
- TGI (SF-295 CNS): 47.1 µM
- GI50 (LOX IMVI melanoma): 24.7 µM
- TGI (LOX IMVI melanoma): > 100 µM
- GI50 (A549 NSCLC): 25 µM
- TGI (A549 NSCLC): > 100 µM
